Measured values from patent publication US10610562B2, “Instant water soluble bioactive dietary phytonutrients composition of spice/herb extracts and a process for its preparation” (AKAY FLAVOURS & AROMATICS PVT. LTD, priority 2014, dated 2020).
Converted amounts (≈) assume the structure as drawn.

Columns and labels:
[1] = Superoxide radical anion scavenging activity; assay type: biochemical
Protocol: McCord and Fridovich, (1969), measure super oxide radical anion scavenging activity. Briefly, 1 mg/mL spice extract stock solution was prepared in distilled water. The reaction mixture contained 200 μL KCN [dissolved in EDTA (6 mM)], 50 μL riboflavin (0.12 mM), 100 μL NBT (1.5 mM) and various concentrations (1-10 μg/mL) of the extract and add Phosphate buffer made up to 3 mL. The tubes containing the reaction mixture were uniformly illuminated with an incandescent lamp for 15 minutes. The absorbance was measured at 530 nm before and after the illumination. Percent inhibition of superoxide radical was calculated using the equation: […] Mix well and this was given to five volunteer for sensory evaluation. The sample was first de-oiled and its antioxidant level was check using DPPH, ABTS, & SOD method comparing with plain potato chips.

[2] = Hydroxyl radical scavenging activity; assay type: biochemical
Protocol: Hydroxyl radical scavenging activity of the extract was measured by following the method of Elizabeth and Rao, (1990). Briefly, 1 mg/mL spice extract stock solution was prepared in distilled water and mixed with the reaction mixture containing deoxyribose (2.8 mM), ferric chloride (0.1 mM) EDTA (0.1 mM), H2O2 (1 mM), ascorbate (0.1 mM), and KH2PO4—KOH (20 mM, pH 7.4) at various concentrations (1-10 μg/mL) to a total volume of 1 mL and incubated for 1 hr at 37° C. Absorbance of each solution was measured at 530 nm using a UV/VIS spectrophotometer against the distilled water as reference. From the absorbance of the control and test solution, percentage inhibition was calculated.

rat liver homogenate = assay: Lipid peroxidation assay; assay type: biochemical
Protocol: The level of lipid peroxidation was measured by the method of Ohkawa et al (1979). Briefly, 1 mg/mL spice extract stock solution was prepared in distilled water. Various concentrations (1-10 μg/mL) of extract were incubated with 0.1 mL rat liver homogenate (25%) containing 30 mM KCl, Tris-HCl buffer (0.04 M, pH 7.0), ascorbic acid (0.06 mM) and ferrous ion (0.16 mM) in a total volume 0.5 mL for 1 hr. After incubation, 0.4 mL of reaction mixture was treated with 0.2 mL SDS (8.1%), 1.5 mL TBA (0.8%) and 1.5 mL acetic acid (20%, pH 3.5) distilled water were kept for 1 hr in a boiling water bath at 100° C. […] Absorbance of the clear supernatant was measured at 532 nm against pyridine:butanol. Percent inhibition of lipid peroxidation was calculated using the equation: […]

DPPH assay = assay type: biochemical
Protocol: Briefly, various concentrations of the extract were added to 1 mL of freshly prepared DPPH solution in methanol. The reaction mixture was made up to 2 mL with methanol; incubated for 20 minutes; read at 515 nm against methanol as reference. The percentage inhibition was calculated and concentration needed for 50% inhibition was found out. […] Mix well and this was given to five volunteer for sensory evaluation. The sample was first de-oiled and its antioxidant level was check using DPPH, ABTS, & SOD method comparing with plain potato chips.

ABTS assay = assay type: biochemical
Protocol: Keep ABTS solution at Room temperature for 16 hours, and then store it at 4° C. (if not use). Take 500 μL, ABTS solution and add 50 mL PBS; adjust the OD to 0.7-0.8 against PBS as reference at 734 nm. Take 1 mL ABTS solution with different varies concentration of the extracts (1 mg/mL spice extract stock solution was prepared in distilled water) and made up to 2 mL with PBS. Keep the sample at room temperature for 6 minutes. The absorbance was measured at 734 nm. The results were calculated from the slopes of reaction curves obtained by plotting the absorbance Vs time. […] Mix well and this was given to five volunteer for sensory evaluation. The sample was first de-oiled and its antioxidant level was check using DPPH, ABTS, & SOD method comparing with plain potato chips.

[3] = system: carrageenan induced paw oedema; assay: In vivo anti-inflammatory potential, carrageenan induced paw oedema model; parameters: species or system Swiss albino mice; settings: reference drug at dose 50 mg/kg body weight
Protocol: The animals for experimental model were taken from small breeding station of Amala Cancer Research Centre, Thrissur (Registration No. 149/99/CPCSEA) and […] Institute of Medical Science, Kochi (Registration No. 527/02/a/CPCSEA). The animals were kept in air-conditioned room at 22±2° C. and relative humidity […] with 12 hours day and light cycle, fed with normal mouse chow, a natural ingredient diet (Sai Feeds, India) and water ad libitum. All animal experiments were performed according to the rules and regulations of the Committee for the Purpose of Control and Supervision of Experiments on Animals (CPCSEA), Government of India. Five groups each contained six Male Swiss albino mice (25-30 g) in each group were injected with 25 μL of 1% suspension of carrageenan in 0.1% carboxy methylcellulose (CMC) sub-planetary into right hind paw. Paw volume was measured at various time intervals such as, paw volume before inflammation induction, then for 1, 2, 3, 4, 5 and 24 hours after carrageenan administration using a vernier calliper. Clove extract at doses 25, 50 and 100 mg/kg body weight was administered (orally) 1 hour prior to carrageenan injection. […] The percentages of inhibition were calculated according to the following formula. […] Where, VT-Paw oedema at various time intervals and Vo-Initial paw oedema [table]

| SMILES | IC50, superoxide radical anion scavenging [1] [µg/mL] | IC50, hydroxyl radical scavenging [2] [µg/mL] | IC50, lipid peroxidation (rat liver homogenate) [µg/mL] | IC50, DPPH (DPPH assay) [µg/mL] | IC50, ABTS (ABTS assay) [µg/mL] | inhibition of paw oedema [3] [%] |
| --- | --- | --- | --- | --- | --- | --- |
| O=C1O[C@H]([C@@H](O)CO)C(O)=C1O [Vitamin C] | 1900 (≈ 10800 µM) | 1550 (≈ 8800 µM) | 375 (≈ 2130 µM) | 14 (≈ 79.5 µM) | 2.25 (≈ 12.8 µM) |  |
| O=C(O)Cc1ccccc1Nc1c(Cl)cccc1Cl [diclofenac, Diclofenac] |  |  |  |  |  | 56.70 |
